Common to all, as to format: cell-based
The subject of assay [1] is HIV-1 HBX2 (wild type). The assay is described as follows: High throughput cytopathic effect assay in MT-4 cells, wild type HIV-1. From the text:
(§1) Compounds were screened in a miniaturized, high throughput cytopathic effect assay for activity against HIV-1 HBX2 (wild type) and HIV-1 reverse transcriptase mutants K103N and Y181C. In Tables 1 and 2 below. “w.t.” refers to results of the tested compounds run with the wildtype 1 and “w.t, assay 2” refers results of the tested compounds run with the wildtype on the same day as the testing of the compounds with the mutants. Thus, “w.t, assay 2” was run under the same conditions as the testing of the compounds with the mutants and provides a direct comparison with the results from the testing with the mutants.
(§2) Ten-point serial dilutions of compounds with half-log step size were generated in DMSO. AZT ([…]) was used as the positive control and DMSO as the negative control. The Echo acoustic dispenser was used to deliver 200 nL of serially diluted compound into sterile 384 well tissue culture assay plates. Two million MT-4 cells were incubated with each of the 3 viruses at MOI of 0.0005 in separate 1 mL infection tubes for 1 hour at 37° C. The cells were diluted in cell culture medium (RPMI+10% FBS) to 50.000 cells/mL. The infected cells were added to 384 well assay plates containing serially dilute compounds. Assay plates were incubated for 5 days in a humidified incubator set at 37° C. and 5% CO2. To measure the cytopathic effect of HIV, 40 μL Cell TiterGlo was added to each well and the resulting luminescence signal is read with the Envision plate reader (Perkin Elmer). Data were normalized to positive and negative controls in each plate and expressed as % CPE Protection. EC50 values were defined as the compound concentration that caused a 50% decrease in luminescence signal, and were calculated by non-linear regression using Pipeline Pilot software by applying a four parameter fit equation (Accelrys, San Diego, Calif.).

Assay [2] concerns HIV-1 reverse transcriptase mutant K103N. The assay is described as follows: High throughput cytopathic effect assay in MT-4 cells, K103N mutant. Particulars: for EC50: Human immunodeficiency virus 1, MT4, 120 h, read-out: MT4 EC50 (nM) against K103N; for FC against mutant K103N: fold change of MT4 EC50 versus w.t. assay 2.
Source text: as §1, §2

Assay [3] concerns HIV-1 reverse transcriptase mutant Y181C. Kind of assay: High throughput cytopathic effect assay in MT-4 cells, Y181C mutant. The conditions noted are these: for EC50: Human immunodeficiency virus 1, MT4, 120 h, read-out: MT4 EC50 (nM) against Y181C; for FC against mutant Y181C: fold change of MT4 EC50 versus w.t. assay 2.
Source text: as §1, §2
In general terms: Protection from cytopathic effect is a common read-out in antiviral testing.

The mark [4] stands for this setting: Human immunodeficiency virus 1, MT4, 120 h, MT-4 cells, 5 days, cytopathic effect, Cell TiterGlo, read-out: MT4 EC50 (nM) against w.t.
Where [5] appears, read: Human immunodeficiency virus 1, MT4, read-out: MT4 EC50 (nM) against w.t. assay 2.

The structures appear in SMILES notation. Like-named read-outs stand apart in the source and are kept apart here.

As a reminder, the EC50 is the midpoint of the concentration-response curve.

Take `Cc1cc(Nc2nc(N)c3cccc(-c4c(C)cc(/C=C/C#N)cc4C)c3n2)ncc1C#N` [Compound 18, (E)-6-((4-Amino-8-(4-(2-cyanovinyl)-2,6-dimethylphenyl)quinazolin-2-yl)amino)-4-methylnicotinonitrile]: the EC50 in assay [1] (setting [4]) is 21.9 nM; in assay [1] (setting [5]), 13.1 nM; in assay [2], 12.1 nM; in assay [3] it was 112 nM. In assay [2], the “FC against mutant K103N” value was 0.9. Moreover, the “FC against mutant Y181C” value in assay [3] is 8.6.

In the case of `COc1cc(-c2c(C)cc(/C=C/C#N)cc2C)c2nc(Nc3ccc(C#N)cn3)nc(N)c2c1` [Compound 24, (E)-6-((4-Amino-8-(4-(2-cyanovinyl)-2,6-dimethylphenyl)-6-methoxyquinazolin-2-yl)amino)nicotinonitrile], the EC50 in assay [1] (Human immunodeficiency virus 1, MT4, 120 h, read-out: MT4 EC50 (nM) against w.t.) was 27.8 nM; in assay [1] (setting [5]), 27.8 nM; in assay [2] it was 32.5 nM; in assay [3], 478 nM. Besides, the “FC against mutant K103N” value in assay [2] is 1.2. Moreover, the “FC against mutant Y181C” value in assay [3] came out at 17.2.

On to `Cc1cc(C#N)cnc1Nc1nc(N)c2cccc(-c3c(C)cc(/C=C/C#N)cc3C)c2n1` [Compound 17, (E)-6-((4-Amino-8-(4-(2-cyanovinyl)-2,6-dimethylphenyl)quinazolin-2-yl)amino)-5-methylnicotinonitrile], for which the EC50 was 229 nM in assay [1] (setting [4]), 190 nM in assay [1] (setting [5]), 151 nM in assay [2] and above 500 nM in assay [3]. The “FC against mutant K103N” value in assay [2] was 0.8. Also, the “FC against mutant Y181C” value in assay [3] was above 2.6.

For the molecule `CCc1cc(/C=C/C#N)cc(CC)c1-c1cccc2c(N)nc(Nc3ccc(C#N)cc3)nc12` [Compound 35, (E)-4-((4-Amino-8-(4-(2-cyanovinyl)-2,6-diethylphenyl)quinazolin-2-yl)amino)benzonitrile], the EC50 in assay [1] (setting [4]) was determined as 12.8 nM; in assay [1] (setting [5]), 16.8 nM; in assay [2], 16.9 nM; in assay [3] it was 38.6 nM. Also, the “FC against mutant K103N” value in assay [2] came to 1.0. Moreover, the “FC against mutant Y181C” value in assay [3] is on record as 2.3.

For the molecule `COc1cc(/C=C/C#N)cc(OC)c1-c1cccc2c(N)nc(Nc3ccc(C#N)cc3)nc12` [Compound 32, (E)-4-((4-Amino-8-(4-(2-cyanovinyl)-2,6-dimethoxyphenyl)quinazolin-2-yl)amino)benzonitrile], the EC50 in assay [1] (setting [4]) turned out to be 1.9 nM; in assay [1] (setting [5]) it was 1.3 nM; in assay [2] it was 11.5 nM; in assay [3], 10.5 nM. For the same molecule, in assay [2], the “FC against mutant K103N” value is 1.2. Also, in assay [3], the “FC against mutant Y181C” value came out at 8.3.

Consider `Cc1cc(/C=C/C#N)cc(C)c1-c1cc(Cl)cc2c(N)nc(Nc3ccc(C#N)cc3)nc12` [Compound 19, (E)-4-((4-Amino-6-chloro-8-(4-(2-cyanovinyl)-2,6-dimethylphenyl)quinazolin-2-yl)amino)benzonitrile], for which the EC50 in assay [1] (setting [4]) is 27.5 nM; in assay [1] (setting [5]), 29 nM; in assay [2], 30.3 nM; in assay [3], 79.7 nM. In addition, the “FC against mutant K103N” value in assay [2] was found to be 1.0. Further, the “FC against mutant Y181C” value in assay [3] was determined as 2.7.

For the molecule `CNc1nc(Nc2ccc(C#N)cn2)nc2c(-c3c(C)cc(/C=C/C#N)cc3C)cccc12` [Compound 31, (E)-6-((8-(4-(2-Cyanovinyl)-2,6-dimethylphenyl)-4-(methylamino)quinazolin-2-yl)amino)nicotinonitrile], the EC50 in assay [1] (setting [4]) turned out to be 10.5 nM; in assay [1] (setting [5]), 8.6 nM; in assay [2] it was 17.6 nM; in assay [3], 432 nM. In addition, the “FC against mutant K103N” value in assay [2] worked out at 2.1. Moreover, in assay [3], the “FC against mutant Y181C” value is 50.5.

Regarding `Cc1cc(/C=C/C#N)cc(C)c1-c1cc(F)cc2cnc(Nc3ccc(C#N)cn3)nc12` [Compound 14, (E)-6-((8-(4-(2-Cyanovinyl)-2,6-dimethylphenyl)-6-fluoroquinazolin-2-yl)amino)nicotinonitrile], the concentration giving a half-maximal response (EC50) in assay [1] (setting [4]) turned out to be 8.1 nM; in assay [1] (setting [5]), 12.7 nM; in assay [2], 15.1 nM; in assay [3], 122 nM. Further, in assay [2], the “FC against mutant K103N” value was 1.2. Also, the “FC against mutant Y181C” value in assay [3] stood at 9.6.

Turning to `COc1ccc(-c2c(C)cc(/C=C/C#N)cc2C)c2nc(Nc3ccc(C#N)cc3)nc(N)c12` [Compound 28, (E)-4-((4-Amino-8-(4-(2-cyanovinyl)-2,6-dimethylphenyl)-5-methoxyquinazolin-2-yl)amino)benzonitrile], the EC50 is 11.4 nM in assay [1] (setting [4]), 9.1 nM in assay [1] (setting [5]), 14.3 nM in assay [2] and 57.2 nM in assay [3]. Further, the “FC against mutant K103N” value in assay [2] is 1.6. Further, the “FC against mutant Y181C” value in assay [3] is recorded as 6.3.

`N#C/C=C/c1cc(F)c(-c2cccc3c(N)nc(Nc4ccc(C#N)cc4)nc23)c(F)c1` [Compound 8, (E)-4-((4-Amino-8-(4-(2-cyanovinyl)-2,6-difluorophenyl)quinazolin-2-yl)amino)benzonitrile]: the concentration for a half-maximal effect (EC50) is 2.7 nM in assay [1] (setting [4]), 2.8 nM in assay [1] (setting [5]), 3.7 nM in assay [2] and 21.7 nM in assay [3]. The “FC against mutant K103N” value in assay [2] came out at 1.3. Besides, the “FC against mutant Y181C” value in assay [3] came out at 7.8.

As to `CCc1cc(/C=C/C#N)cc(CC)c1-c1cccc2c(N)nc(Nc3ccc(C#N)cn3)nc12` [Compound 36, (E)-6-((4-Amino-8-(4-(2-cyanovinyl)-2,6-diethylphenyl)quinazolin-2-yl)amino)nicotinonitrile], the concentration giving a half-maximal response (EC50) in assay [1] (setting [4]) came out at 7.7 nM; in assay [1] (setting [5]), 10.5 nM; in assay [2], 10.1 nM; in assay [3] it was 87.3 nM. In assay [2], the “FC against mutant K103N” value was determined as 1.0. For the same molecule, the “FC against mutant Y181C” value in assay [3] amounted to 8.3.

Consider `Cc1cc(Nc2nc(N)c3cccc(-c4c(C)cc(/C=C/C#N)cc4C)c3n2)nc(C)c1C#N` [Compound 15, (E)-6-((4-Amino-8-(4-(2-cyanovinyl)-2,6-dimethylphenyl)quinazolin-2-yl)amino)-2,4-dimethylnicotinonitrile], for which the concentration giving a half-maximal response (EC50) was 22.6 nM in assay [1] (setting [4]), 33.2 nM in assay [1] (setting [5]), 72.2 nM in assay [2] and 180 nM in assay [3]. Further, in assay [2], the “FC against mutant K103N” value is listed as 2.2. In addition, the “FC against mutant Y181C” value in assay [3] was 5.4.

Turning to `Cc1cc(/C=C/C#N)cc(C)c1-c1cccc2c(=O)[nH]c(Nc3ccc(C#N)cc3)nc12` [Compound 41, (E)-4-((8-(4-(2-Cyanovinyl)-2,6-dimethylphenyl)-4-oxo-3,4-dihydroquinazolin-2-yl)amino)benzonitrile], the EC50 was found to be 6.3 nM in assay [1] (setting [4]), 9.5 nM in assay [1] (setting [5]), 15.7 nM in assay [2] and 32.8 nM in assay [3]. Also, the “FC against mutant K103N” value in assay [2] amounted to 1.6. Also, in assay [3], the “FC against mutant Y181C” value was 3.4.

As to `Cc1cc(/C=C/C#N)cc(C)c1-c1cccc2c(NC(N)=O)nc(Nc3ccc(C#N)cc3)nc12` [Compound 37, (E)-1-(2-((4-Cyanophenyl)amino)-8-(4-(2-cyanovinyl)-2,6-dimethylphenyl)quinazolin-4-yl)urea], the EC50 in assay [1] (setting [4]) was found to be 4.7 nM; in assay [1] (setting [5]), 6.8 nM; in assay [2] it was 7.8 nM; in assay [3], 22.1 nM. The “FC against mutant K103N” value in assay [2] is reported as 1.2. Besides, the “FC against mutant Y181C” value in assay [3] is reported as 3.3.

`C/C(=C/C#N)c1cc(C)c(-c2cccc3c(N)nc(Nc4ccc(C#N)cc4)nc23)c(C)c1` [Compound 39, (Z)-4-((4-Amino-8-(4-(1-cyanoprop-1-en-2-yl)-2,6-dimethylphenyl)quinazolin-2-yl)amino)benzonitrile]: the EC50 in assay [1] (setting [4]) was determined as 5.9 nM; in assay [1] (setting [5]) it was 8.9 nM; in assay [2], 12.1 nM; in assay [3], 27.2 nM. Moreover, the “FC against mutant K103N” value in assay [2] worked out at 1.4. In addition, the “FC against mutant Y181C” value in assay [3] was 3.0.

`C/C(=C\C#N)c1cc(C)c(-c2cccc3c(N)nc(Nc4ccc(C#N)cc4)nc23)c(C)c1` [Compound 38, (E)-4-((4-Amino-8-(4-(1-cyanoprop-1-en-2-yl)-2,6-dimethylphenyl)quinazolin-2-yl)amino)benzonitrile]: the 50% effective concentration (EC50) came out at 6 nM in assay [1] (setting [4]), 7.9 nM in assay [1] (setting [5]), 7 nM in assay [2] and 18.6 nM in assay [3]. Moreover, in assay [2], the “FC against mutant K103N” value is given as 0.9. Further, the “FC against mutant Y181C” value in assay [3] is on record as 2.4.

As for `Cc1cc(/C=C/C#N)cc(C)c1-c1cc(N)cc2c(N)nc(Nc3ccc(C#N)cn3)nc12` [Compound 23, (E)-6-((4,6-Diamino-8-(4-(2-cyanovinyl)-2,6-dimethylphenyl)quinazolin-2-yl)amino)nicotinonitrile], the EC50 in assay [1] (setting [4]) stood at 8.7 nM.

The values are drawn from US10548898B2, “Quinazoline compounds” (Gilead Sciences, Inc., priority 2014, dated 2020).
